# Laboratory results taken from the kinase profiling compilation of Christmann-Franck et al. (2016).
# What was measured:
# Assay in all cases: radiometric filter-binding kinase assay
# AURKB (human) = AURKB (human) (UniProt Q96GD4)
# CHEK1 (human) = CHEK1 (human) (UniProt O14757)
# CSNK1D (human) = CSNK1D (human) (UniProt P48730)
# DAPK1 (human) = DAPK1 (human) (UniProt P53355)
# DYRK3 (human) = DYRK3 (human) (UniProt O43781)
# EEF2K (human) = EEF2K (human) (UniProt O00418)
# EPHB1 (human) = EPHB1 (human) (UniProt P54762)
# GCK (human) = GCK (human) (UniProt Q12851)
# GSK3B (human) = GSK3B (human) (UniProt P49841)
# HIPK2 (human) = HIPK2 (human) (UniProt Q9H2X6)
# HIPK3 (human) = HIPK3 (human) (UniProt Q9H422); conditions: compound 1.0 µM
# IGF1R (human) = IGF1R (human) (UniProt P08069)
# IRAK1 (human) = IRAK1 (human) (UniProt P51617)
# JAK2 JH1 JH2 (human) = JAK2 JH1 JH2 (human) (UniProt O60674); conditions: compound 1.0 µM
# MAPK12 (human) = MAPK12 (human) (UniProt P53778)
# MAPK14 (human) = MAPK14 (human) (UniProt Q16539)
# MAPK3 (human) = MAPK3 (human) (UniProt P27361)
# MAPKAPK2 (human) = MAPKAPK2 (human) (UniProt P49137)
# MAPKAPK3 (human) = MAPKAPK3 (human) (UniProt Q16644)
# MARK2 (human) = MARK2 (human) (UniProt Q7KZI7)
# MELK (human) = MELK (human) (UniProt Q14680)
# MINK1 (human) = MINK1 (human) (UniProt Q8N4C8)
# [1] = tested on: OXSR1 (human), O95747 [T185E]
# PRKAA1 or PRKAA2 (rat) = conditions: compound 1.0 µM; accession and sequence are those of the human protein
# PRKCA (human) = PRKCA (human) (UniProt P17252)
# ROCK2 (rat) = conditions: accession and sequence are those of the human protein
# RPS6KA5 KD1 KD2 (human) = RPS6KA5 KD1 KD2 (human) (UniProt O75582)
# SIK3 (human) = SIK3 (human) (UniProt Q9Y2K2)
# STK33 (human) = STK33 (human) (UniProt Q9BYT3)
# SYK (human) = SYK (human) (UniProt P43405)
# TESK1 (human) = TESK1 (human) (UniProt Q15569)
# TLK1 (human) = TLK1 (human) (UniProt Q9UKI8)
# Sequence of TLK1 (human) (Q9UKI8 whole entry, looked up): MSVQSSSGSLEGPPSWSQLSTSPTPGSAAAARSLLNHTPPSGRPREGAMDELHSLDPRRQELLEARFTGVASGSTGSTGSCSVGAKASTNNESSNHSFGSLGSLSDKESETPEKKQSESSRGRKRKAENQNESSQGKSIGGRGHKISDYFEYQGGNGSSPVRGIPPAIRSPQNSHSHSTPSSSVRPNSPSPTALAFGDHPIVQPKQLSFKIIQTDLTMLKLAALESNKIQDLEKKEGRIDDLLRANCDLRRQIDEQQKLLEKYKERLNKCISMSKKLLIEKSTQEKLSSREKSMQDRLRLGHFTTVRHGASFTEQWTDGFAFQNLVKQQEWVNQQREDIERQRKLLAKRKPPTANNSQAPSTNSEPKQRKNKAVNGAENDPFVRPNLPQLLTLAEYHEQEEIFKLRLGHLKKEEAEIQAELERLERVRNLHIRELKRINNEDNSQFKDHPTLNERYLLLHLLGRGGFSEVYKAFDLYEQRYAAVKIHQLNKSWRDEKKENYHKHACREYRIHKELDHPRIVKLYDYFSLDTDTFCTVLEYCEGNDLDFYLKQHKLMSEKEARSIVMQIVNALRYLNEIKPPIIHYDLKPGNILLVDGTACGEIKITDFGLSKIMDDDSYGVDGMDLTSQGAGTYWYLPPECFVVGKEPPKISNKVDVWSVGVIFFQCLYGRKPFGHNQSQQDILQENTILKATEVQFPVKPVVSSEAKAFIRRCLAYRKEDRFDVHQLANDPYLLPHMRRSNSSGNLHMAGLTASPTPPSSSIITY
# Sequence of MARK2 (human) (Q7KZI7 whole entry, looked up): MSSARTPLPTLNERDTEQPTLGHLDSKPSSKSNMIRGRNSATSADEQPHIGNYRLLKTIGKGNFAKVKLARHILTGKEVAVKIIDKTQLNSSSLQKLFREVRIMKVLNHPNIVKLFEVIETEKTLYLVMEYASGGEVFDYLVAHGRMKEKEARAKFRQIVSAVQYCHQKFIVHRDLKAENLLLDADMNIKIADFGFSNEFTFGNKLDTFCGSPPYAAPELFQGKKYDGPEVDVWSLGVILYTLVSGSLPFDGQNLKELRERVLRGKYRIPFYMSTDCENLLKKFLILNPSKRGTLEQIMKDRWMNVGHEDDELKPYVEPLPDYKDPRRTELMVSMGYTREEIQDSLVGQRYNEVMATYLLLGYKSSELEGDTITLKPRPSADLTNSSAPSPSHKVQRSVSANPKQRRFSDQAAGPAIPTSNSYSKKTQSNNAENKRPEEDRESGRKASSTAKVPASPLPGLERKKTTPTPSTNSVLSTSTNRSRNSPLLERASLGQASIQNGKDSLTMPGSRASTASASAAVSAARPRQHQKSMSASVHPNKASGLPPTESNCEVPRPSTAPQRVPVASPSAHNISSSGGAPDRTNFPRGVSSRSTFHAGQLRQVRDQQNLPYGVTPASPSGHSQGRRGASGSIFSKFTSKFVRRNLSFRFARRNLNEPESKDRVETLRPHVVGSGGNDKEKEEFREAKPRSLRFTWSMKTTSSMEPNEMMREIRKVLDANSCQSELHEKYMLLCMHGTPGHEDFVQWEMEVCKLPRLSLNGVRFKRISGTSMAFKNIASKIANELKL
# Sequence of OXSR1 (human), O95747 [T185E] (O95747 whole entry T185E, looked up): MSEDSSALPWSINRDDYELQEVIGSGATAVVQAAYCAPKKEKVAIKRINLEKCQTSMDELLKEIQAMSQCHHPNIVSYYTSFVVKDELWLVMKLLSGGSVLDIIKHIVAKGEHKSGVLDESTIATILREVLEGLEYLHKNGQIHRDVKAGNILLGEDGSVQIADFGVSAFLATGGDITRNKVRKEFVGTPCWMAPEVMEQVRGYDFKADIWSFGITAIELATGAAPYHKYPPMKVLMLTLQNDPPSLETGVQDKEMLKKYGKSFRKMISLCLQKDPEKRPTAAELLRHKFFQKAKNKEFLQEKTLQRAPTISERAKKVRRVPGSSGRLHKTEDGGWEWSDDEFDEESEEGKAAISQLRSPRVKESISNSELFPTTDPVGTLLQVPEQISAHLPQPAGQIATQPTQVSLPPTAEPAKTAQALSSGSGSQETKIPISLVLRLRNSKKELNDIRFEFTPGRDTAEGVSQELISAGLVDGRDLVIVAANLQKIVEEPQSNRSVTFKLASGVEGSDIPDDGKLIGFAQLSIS
# Sequence of MELK (human) (Q14680 whole entry, looked up): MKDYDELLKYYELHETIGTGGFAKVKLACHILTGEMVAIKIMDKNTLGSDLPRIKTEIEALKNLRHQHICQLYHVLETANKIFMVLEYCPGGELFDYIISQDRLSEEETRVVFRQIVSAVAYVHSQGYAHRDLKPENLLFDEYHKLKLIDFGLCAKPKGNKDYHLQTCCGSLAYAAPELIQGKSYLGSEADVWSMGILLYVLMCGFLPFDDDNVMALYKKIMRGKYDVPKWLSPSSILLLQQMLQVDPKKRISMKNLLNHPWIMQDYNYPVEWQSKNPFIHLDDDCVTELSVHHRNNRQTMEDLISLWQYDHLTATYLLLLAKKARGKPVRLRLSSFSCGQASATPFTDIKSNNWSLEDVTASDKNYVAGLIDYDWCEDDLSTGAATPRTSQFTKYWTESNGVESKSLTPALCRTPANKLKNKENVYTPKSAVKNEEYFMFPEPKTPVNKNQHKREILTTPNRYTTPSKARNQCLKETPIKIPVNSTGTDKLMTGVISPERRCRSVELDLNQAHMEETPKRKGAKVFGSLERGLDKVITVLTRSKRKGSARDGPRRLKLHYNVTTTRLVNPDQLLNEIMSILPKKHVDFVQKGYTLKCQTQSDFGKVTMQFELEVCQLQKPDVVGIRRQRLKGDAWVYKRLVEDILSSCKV
# Sequence of IRAK1 (human) (P51617 whole entry, looked up): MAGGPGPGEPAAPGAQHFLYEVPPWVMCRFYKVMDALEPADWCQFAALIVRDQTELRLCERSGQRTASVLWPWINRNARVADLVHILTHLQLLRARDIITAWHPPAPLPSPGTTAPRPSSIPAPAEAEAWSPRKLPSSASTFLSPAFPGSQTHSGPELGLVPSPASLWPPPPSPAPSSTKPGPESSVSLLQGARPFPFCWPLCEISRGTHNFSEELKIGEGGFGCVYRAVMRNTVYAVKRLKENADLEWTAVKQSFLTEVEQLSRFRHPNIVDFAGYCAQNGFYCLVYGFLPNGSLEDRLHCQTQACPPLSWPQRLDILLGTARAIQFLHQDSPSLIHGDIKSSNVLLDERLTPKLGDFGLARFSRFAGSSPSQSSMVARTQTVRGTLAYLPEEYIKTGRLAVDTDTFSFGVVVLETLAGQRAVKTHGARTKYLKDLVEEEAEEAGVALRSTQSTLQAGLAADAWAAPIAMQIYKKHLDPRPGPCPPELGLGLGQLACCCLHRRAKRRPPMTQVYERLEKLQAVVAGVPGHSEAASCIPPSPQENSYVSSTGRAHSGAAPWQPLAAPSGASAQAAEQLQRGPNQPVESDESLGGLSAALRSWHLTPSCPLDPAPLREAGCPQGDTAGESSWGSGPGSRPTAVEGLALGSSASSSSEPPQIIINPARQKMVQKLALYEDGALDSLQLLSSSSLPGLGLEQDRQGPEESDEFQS
# Sequence of CHEK1 (human) (O14757 whole entry, looked up): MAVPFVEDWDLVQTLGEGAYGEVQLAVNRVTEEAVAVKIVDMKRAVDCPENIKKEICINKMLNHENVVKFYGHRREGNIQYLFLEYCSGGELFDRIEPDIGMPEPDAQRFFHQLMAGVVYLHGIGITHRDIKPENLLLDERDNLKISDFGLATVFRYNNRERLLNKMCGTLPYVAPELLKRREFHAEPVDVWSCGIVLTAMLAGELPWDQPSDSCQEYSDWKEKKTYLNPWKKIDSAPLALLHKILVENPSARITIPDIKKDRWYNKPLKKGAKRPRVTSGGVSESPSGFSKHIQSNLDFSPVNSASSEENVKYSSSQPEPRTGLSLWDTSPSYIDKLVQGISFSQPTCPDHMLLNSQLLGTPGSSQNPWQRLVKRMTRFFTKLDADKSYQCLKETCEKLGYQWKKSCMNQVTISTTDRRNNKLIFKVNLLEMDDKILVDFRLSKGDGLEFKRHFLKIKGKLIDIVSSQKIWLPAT
# Sequence of MAPK14 (human) (Q16539 whole entry, looked up): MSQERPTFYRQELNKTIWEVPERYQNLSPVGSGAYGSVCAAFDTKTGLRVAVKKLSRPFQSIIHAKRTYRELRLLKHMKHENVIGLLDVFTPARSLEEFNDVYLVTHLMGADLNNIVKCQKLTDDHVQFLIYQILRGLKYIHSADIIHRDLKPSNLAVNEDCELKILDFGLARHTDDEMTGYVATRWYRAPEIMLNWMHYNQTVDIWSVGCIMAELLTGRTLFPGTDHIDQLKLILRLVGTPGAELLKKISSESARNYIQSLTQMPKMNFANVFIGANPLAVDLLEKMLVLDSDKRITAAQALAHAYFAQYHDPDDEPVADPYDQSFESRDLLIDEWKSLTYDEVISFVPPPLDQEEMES
# Sequence of GSK3B (human) (P49841 whole entry, looked up): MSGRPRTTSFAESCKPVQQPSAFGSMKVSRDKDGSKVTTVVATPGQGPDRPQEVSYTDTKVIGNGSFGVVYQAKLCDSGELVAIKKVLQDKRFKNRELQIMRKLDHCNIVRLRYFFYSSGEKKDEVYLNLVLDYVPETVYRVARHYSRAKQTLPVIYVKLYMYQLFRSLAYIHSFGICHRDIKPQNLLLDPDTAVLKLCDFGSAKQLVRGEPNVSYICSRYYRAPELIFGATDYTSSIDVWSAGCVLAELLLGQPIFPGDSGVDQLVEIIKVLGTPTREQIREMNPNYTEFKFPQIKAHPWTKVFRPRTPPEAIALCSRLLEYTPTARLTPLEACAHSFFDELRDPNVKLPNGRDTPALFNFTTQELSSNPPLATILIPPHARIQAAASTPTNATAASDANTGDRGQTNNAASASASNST
compound,measurement,setting,value
CNc1nc(Nc2ccc(C(=O)N3CCOCC3)cc2OC)ncc1Cl,residual activity,AURKB (human); compound 1.0 µM,83%
same,residual activity,AURKB (human); compound 10.0 µM,42%
same,residual activity,CHEK1 (human); compound 1.0 µM,65%
same,residual activity,CHEK1 (human); compound 10.0 µM,45%
same,residual activity,CSNK1D (human); compound 1.0 µM,44%
same,residual activity,CSNK1D (human); compound 10.0 µM,89%
same,residual activity,DAPK1 (human); compound 1.0 µM,61%
same,residual activity,DAPK1 (human); compound 10.0 µM,23%
same,residual activity,DYRK3 (human); compound 1.0 µM,84%
same,residual activity,DYRK3 (human); compound 10.0 µM,76%
same,residual activity,EEF2K (human); compound 1.0 µM,83%
same,residual activity,EEF2K (human); compound 10.0 µM,86%
same,residual activity,EPHB1 (human); compound 1.0 µM,115%
same,residual activity,EPHB1 (human); compound 10.0 µM,86%
same,residual activity,GCK (human); compound 1.0 µM,108%
same,residual activity,GCK (human); compound 10.0 µM,79%
same,residual activity,GSK3B (human); compound 1.0 µM,100%
same,residual activity,GSK3B (human); compound 10.0 µM,98%
same,residual activity,HIPK2 (human); compound 1.0 µM,77%
same,residual activity,HIPK2 (human); compound 10.0 µM,88%
same,residual activity,HIPK3 (human),85%
same,residual activity,IGF1R (human); compound 1.0 µM,100%
same,residual activity,IGF1R (human); compound 10.0 µM,51%
same,residual activity,IRAK1 (human); compound 1.0 µM,84%
same,residual activity,IRAK1 (human); compound 10.0 µM,83%
same,residual activity,JAK2 JH1 JH2 (human),83%
same,residual activity,MAPK12 (human); compound 1.0 µM,88%
same,residual activity,MAPK12 (human); compound 10.0 µM,94%
same,residual activity,MAPK14 (human); compound 1.0 µM,71%
same,residual activity,MAPK14 (human); compound 10.0 µM,93%
same,residual activity,MAPK3 (human); compound 1.0 µM,95%
same,residual activity,MAPK3 (human); compound 10.0 µM,104%
same,residual activity,MAPKAPK2 (human); compound 1.0 µM,88%
same,residual activity,MAPKAPK2 (human); compound 10.0 µM,102%
same,residual activity,MAPKAPK3 (human); compound 1.0 µM,120%
same,residual activity,MAPKAPK3 (human); compound 10.0 µM,81%
same,residual activity,MARK2 (human); compound 1.0 µM,85%
same,residual activity,MARK2 (human); compound 10.0 µM,90%
same,residual activity,MELK (human); compound 1.0 µM,88%
same,residual activity,MELK (human); compound 10.0 µM,98%
same,residual activity,MINK1 (human); compound 1.0 µM,86%
same,residual activity,MINK1 (human); compound 10.0 µM,96%
same,residual activity,[1]; compound 1.0 µM,108%
same,residual activity,[1]; compound 10.0 µM,82%
same,residual activity,PRKAA1 or PRKAA2 (rat),89%
same,residual activity,PRKCA (human); compound 1.0 µM,66%
same,residual activity,PRKCA (human); compound 10.0 µM,87%
same,residual activity,ROCK2 (rat); compound 1.0 µM,87%
same,residual activity,ROCK2 (rat); compound 10.0 µM,71%
same,residual activity,RPS6KA5 KD1 KD2 (human); compound 1.0 µM,104%
same,residual activity,RPS6KA5 KD1 KD2 (human); compound 10.0 µM,84%
same,residual activity,SIK3 (human); compound 1.0 µM,93%
same,residual activity,SIK3 (human); compound 10.0 µM,82%
same,residual activity,STK33 (human); compound 1.0 µM,61%
same,residual activity,STK33 (human); compound 10.0 µM,28%
same,residual activity,SYK (human); compound 1.0 µM,68%
same,residual activity,SYK (human); compound 10.0 µM,85%
same,residual activity,TESK1 (human); compound 1.0 µM,90%
same,residual activity,TESK1 (human); compound 10.0 µM,83%
same,residual activity,TLK1 (human); compound 1.0 µM,61%
same,residual activity,TLK1 (human); compound 10.0 µM,100%
